{"source": "patent US6693094B2", "about": "“Biguanide and sulfonylurea formulations for the prevention and treatment of insulin resistance and type 2 diabetes mellitus” (Chrono RX LLC, priority 2001, dated 2004)", "origin": "cited, not measured here", "key": {"[1]": {"settings": "in vivo"}, "[2]": {"settings": "in vivo", "remark": "listed apart in the source"}, "[3]": {"settings": "in vivo", "remark": "listed apart in the source"}, "[4]": {"tested_on": "patients with essential hypertension and coronary artery disease", "settings": "60 mg twice daily for 8 weeks, oral"}, "[5]": {"tested_on": "insulin-resistant type 2 diabetes patients"}, "pancreatic islets": {"tested_on": "pancreatic islets", "settings": "islets exposed to IL-1 beta"}, "sulfonylurea receptor": {"target": "sulfonylurea receptor (Homo sapiens, UniProt Q09428)", "sequence (Q09428 whole entry)": "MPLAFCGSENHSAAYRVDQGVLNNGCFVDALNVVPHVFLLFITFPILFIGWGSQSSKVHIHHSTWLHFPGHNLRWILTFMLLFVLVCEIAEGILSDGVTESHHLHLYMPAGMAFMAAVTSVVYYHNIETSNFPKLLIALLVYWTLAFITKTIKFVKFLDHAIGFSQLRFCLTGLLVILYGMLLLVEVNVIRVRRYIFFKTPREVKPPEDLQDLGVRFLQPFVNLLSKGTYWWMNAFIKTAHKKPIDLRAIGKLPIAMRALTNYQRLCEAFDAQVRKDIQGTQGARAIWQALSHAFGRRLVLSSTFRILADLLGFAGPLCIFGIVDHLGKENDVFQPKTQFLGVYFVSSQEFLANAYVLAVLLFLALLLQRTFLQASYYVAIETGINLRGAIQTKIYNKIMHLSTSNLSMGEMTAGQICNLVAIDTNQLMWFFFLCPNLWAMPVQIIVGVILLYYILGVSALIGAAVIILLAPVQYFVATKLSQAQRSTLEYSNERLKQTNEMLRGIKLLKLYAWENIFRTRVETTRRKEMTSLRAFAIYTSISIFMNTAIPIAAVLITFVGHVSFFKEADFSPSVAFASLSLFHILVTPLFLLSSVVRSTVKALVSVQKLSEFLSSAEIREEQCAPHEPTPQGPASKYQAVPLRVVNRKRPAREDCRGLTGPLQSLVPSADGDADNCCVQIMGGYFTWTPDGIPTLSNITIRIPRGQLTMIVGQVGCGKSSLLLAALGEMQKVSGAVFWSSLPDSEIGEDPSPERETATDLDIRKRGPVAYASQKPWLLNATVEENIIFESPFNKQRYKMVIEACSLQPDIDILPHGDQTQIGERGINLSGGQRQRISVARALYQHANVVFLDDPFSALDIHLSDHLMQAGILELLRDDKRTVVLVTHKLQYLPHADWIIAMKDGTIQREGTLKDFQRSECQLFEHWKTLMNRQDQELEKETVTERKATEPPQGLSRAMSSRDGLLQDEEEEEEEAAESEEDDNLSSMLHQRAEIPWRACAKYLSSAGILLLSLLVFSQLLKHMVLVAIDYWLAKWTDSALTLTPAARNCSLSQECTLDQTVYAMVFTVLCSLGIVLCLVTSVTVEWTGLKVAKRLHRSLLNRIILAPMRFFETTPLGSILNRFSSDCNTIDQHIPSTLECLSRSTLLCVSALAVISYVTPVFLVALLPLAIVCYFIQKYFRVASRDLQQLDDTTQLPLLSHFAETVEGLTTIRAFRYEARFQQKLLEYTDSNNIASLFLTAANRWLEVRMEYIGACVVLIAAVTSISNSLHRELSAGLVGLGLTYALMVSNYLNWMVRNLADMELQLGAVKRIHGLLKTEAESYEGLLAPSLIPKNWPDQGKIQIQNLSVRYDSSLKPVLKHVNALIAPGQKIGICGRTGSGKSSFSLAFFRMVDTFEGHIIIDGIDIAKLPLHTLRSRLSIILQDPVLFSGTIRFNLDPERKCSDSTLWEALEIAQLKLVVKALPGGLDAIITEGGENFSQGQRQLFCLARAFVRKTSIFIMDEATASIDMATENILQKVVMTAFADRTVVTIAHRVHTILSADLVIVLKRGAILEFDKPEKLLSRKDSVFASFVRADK", "sequence (Q14654 whole entry partner)": "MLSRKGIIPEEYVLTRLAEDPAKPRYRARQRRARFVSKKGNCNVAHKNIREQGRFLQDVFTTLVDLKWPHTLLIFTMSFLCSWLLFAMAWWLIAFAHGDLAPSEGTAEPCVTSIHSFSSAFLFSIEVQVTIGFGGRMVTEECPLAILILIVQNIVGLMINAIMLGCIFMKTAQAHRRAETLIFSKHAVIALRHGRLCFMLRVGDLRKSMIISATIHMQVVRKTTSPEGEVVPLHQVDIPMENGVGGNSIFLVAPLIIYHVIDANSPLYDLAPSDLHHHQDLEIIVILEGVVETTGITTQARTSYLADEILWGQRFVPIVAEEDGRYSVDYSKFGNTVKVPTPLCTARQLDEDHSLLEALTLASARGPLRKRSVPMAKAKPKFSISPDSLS", "settings": "sulfonylurea receptors of the β-cell membrane"}, "[6]": {"tested_on": "insulin secreting β-cells", "settings": "hyperglycemic conditions"}, "[7]": {"tested_on": "obese type 2 diabetes patients", "settings": "600 mg/day, used alone"}}}
{"compound": "CN(C)C(=N)N=C(N)N", "note": "[Metformin, metformin]", "values": [{"measurement": "frequency of lactic acidosis", "setting": "[1]", "result": "3 cases per 100,000 patient-years"}, {"measurement": "incidence of lactic acidosis", "setting": "[1]", "result": "0.03 /1,000 patient-years exposure"}]}
{"compound": "[Cr]", "note": "[Cr, Chromium]", "values": [{"measurement": "reduction of metformin requirements", "setting": "[2]", "result": "more than one-half"}]}
{"compound": "CCC1=C(C)CN(C(=O)NCCc2ccc(S(=O)(=O)NC(=O)N[C@H]3CC[C@H](C)CC3)cc2)C1=O", "note": "[Glimepiride]", "values": [{"measurement": "Duration of Action", "setting": "[3]", "result": "16 to 24", "unit": "h"}]}
{"compound": "CC(=O)c1ccc(S(=O)(=O)NC(=O)NC2CCCCC2)cc1", "note": "[Acetohexamide]", "values": [{"measurement": "Duration of Action", "setting": "[3]", "result": "12 to 18", "unit": "h"}]}
{"compound": "COC1=C(OC)C(=O)C(C/C=C(\\C)CC/C=C(\\C)CC/C=C(\\C)CC/C=C(\\C)CC/C=C(\\C)CC/C=C(\\C)CC/C=C(\\C)CC/C=C(\\C)CC/C=C(\\C)CCC=C(C)C)=C(C)C1=O", "note": "[coenzyme Q10, Ubiquinone]", "values": [{"measurement": "HDL-cholesterol", "setting": "[4]", "result": "increased"}, {"measurement": "systolic and diastolic blood pressure, fasting and 2-h plasma insulin, glucose, triglycerides, lipid peroxides, malondialdehyde and diene conjugates", "setting": "[4]", "result": "all reduced"}]}
{"compound": "O=S(=O)([O-])[O-].[O]=[V+2]", "note": "[vanadyl sulfate]", "values": [{"measurement": "time effects are sustained after discontinuation", "setting": "[5]; 100 mg/day for 3 weeks", "result": "up to 2 weeks"}, {"measurement": "hepatic and peripheral insulin sensitivity", "setting": "[5]; 100 mg/day, after 3 weeks", "result": "appear to improve"}]}
{"compound": "COc1ccc(Cl)cc1C(=O)NCCc1ccc(S(=O)(=O)NC(=O)NC2CCCCC2)cc1", "note": "[Glyburide]", "values": [{"measurement": "glycolytic flux and lactate production", "setting": "perfused rat hearts", "result": "dramatic increase"}]}
{"compound": "NC(=O)c1cccnc1", "note": "[nicotinamide, Nicotinamide]", "values": [{"measurement": "concentration of maximum recovery of glucose-induced insulin secretion", "setting": "pancreatic islets", "result": 25, "unit": "mmol/L"}]}
{"compound": "CCCCNC(=O)NS(=O)(=O)c1ccc(C)cc1", "note": "[Tolbutamide]", "values": [{"measurement": "Duration of Action", "setting": "[3]", "result": "6 to 12", "unit": "h"}]}
{"compound": "Cc1cnc(C(=O)NCCc2ccc(S(=O)(=O)NC(=O)NC3CCCCC3)cc2)cn1", "note": "[Glipizide]", "values": [{"measurement": "Duration of Action", "setting": "[3]", "result": "12 to 24", "unit": "h"}, {"measurement": "concentration range that saturates receptors", "setting": "sulfonylurea receptor", "result": "low nM"}]}
{"compound": "O=C1O[C@H]([C@@H](O)CO)C(O)=C1O", "note": "[ascorbate, ascorbic acid]", "values": [{"measurement": "decrease of cellular insulin glycation", "setting": "[6]", "result": "66-80%"}]}
{"compound": "CCCNC(=O)NS(=O)(=O)c1ccc(Cl)cc1", "note": "[Chlorpropamide]", "values": [{"measurement": "Duration of Action", "setting": "[3]", "result": 60, "unit": "h"}]}
{"compound": "vitamin E", "values": [{"measurement": "insulin efficiency and fibrinolysis", "setting": "[7]", "result": "may further worsen insulin efficiency and increase fibrinolysis"}]}
